Measured values from patent US5466675A, “Immunological activity of rhamnolipids” (priority 1992, dated 1995).

Experiments:
[1] = molecular target: P59fyn Tyrosine Kinase (Homo sapiens, UniProt P06241); assay: enzyme inhibition, p59fyn tyrosine kinase; type: biochemical; conditions: 0.5% DMSO
Procedure: (§1) Rhamnolipid (II) was tested in vitro against a wide array of enzymes.
(§2) All enzyme assays were done spectrophotometrically by computer linked automatic microplate reader (Labsystem Multiskan) and Diode Array spectrophotometer (Perkin Elmer).

[2] = range-finding study phase (single intravenous dose); conditions: mouse, in vivo, iv
[3] = test system: mice C57B1/6; assay: as above
[4] = test system: tissue plasminogen activator (t-PA) released by human umbilical cord venous endothelial cells; assay: tissue plasminogen activator release; type: cell-based
[5] = test system: lipoxygenase; assay: enzyme inhibition, lipoxygenase; type: biochemical
Procedure: as §1
(§3) The following enzymes were inhibited at the various rhamnolipid concentrations indicated:
as §2

[6] = test system: B-cells isolated from mouse spleen; assay: B-lymphocyte proliferation + LPS; type: cell-based
Procedure: Procedure: B-cells were isolated from mouse spleen using convnetional procedures, and suspended in DMEM. 10^6 cells/ml were incubated overnight at 37° C. in the presence of 10 ug/ml lipopolysaccharide (LPS) to assess stimulation (positive score, related to 1 ng/ml rat interleukin-5) or suppression (negative score, related to control) of cell proliferation. The test substance was evaluated under these conditions at 10, 1, 0.1, and 0.01 uM. After overnight incubation, 2 uCi [^3 H] thymidine was added to each well. Cells were harvested after an additional 48 hour incubation, and thymidine incorporation assessed by liquid scintillation counting.

[7] = test system: oxazolone-induced delayed type hypersensitivity; assay: immunostimulation (cellular): oxazolone-induced delayed type hypersensitivity; type: in vivo, mouse; conditions: for Swelling (R -L) / ear thickness, Left Ear (No Oxa.) / ear thickness, Right Ear (24 hrs Oxa.): X ± SEM
Procedure: The test substance was administered i.p to groups of 5 mice, 1 hour before application (sensitization) of oxazolone (0.1 ml of 5% solution) to the pre-shaven abdominal surface. Seven days later, 25 μl of a 2% solution of oxazolone was applied (challenge) to the right ear, with vehicle being applied to the left ear. After 24 hours, each mouse was sacrificed and ear thickness measured with a Dyer Model micrometer gauge. Greater than 30 percent enhancement is considered immunostimulant activity.

[8] = test system: HIV I, strain IIIB; assay: effect on viruses, HIV I strain IIIB; type: cell-based; conditions: Human immunodeficiency virus 1, IIIB; read-out: maximal protection
Procedure: Tests were performed according to D. A. Vanden Berghe et al., Inst. Pasteur 84,101 (1986). Rhamnolipid (II) was toxic for VERO cells in concentrations ≥200 ug/ml, and cytotoxic on MT4 cells in concentrations >169.40 ug/ml.

[9] = test system: patients; conditions: human, in vivo
Description: Blood samples for lab tests were taken from all twelve patients on the first and last day of treatment.

[10] = test system: alpha-amylase; assay: enzyme inhibition, alpha-amylase; type: biochemical
Procedure: as §1, §3, §2

[11] = test system: T-cells isolated from mouse thymus; assay: T-lymphocyte proliferation + Con A; type: cell-based
Procedure: Procedure: T-cells were isolated from mouse thymus using conventional procedures, and suspended in DMEM. 5×10^6 cells/ml are incubated overnight at 37° C. in the presence of 3 ug/ml Con A to assess stimulation (positive score, related to 10 U/ml rat interleukin-2) or suppression (negative score, related to control) of cell proliferation. Test substance was evaluated under these conditions at 10, 1, 0.1 and 0.01 uM. After overnight incubation, 2 uCi [^3 H] thymidine is added to each well. Cells were harvested after an additional 48 hour incubation, and thymidine incorporation assessed by liquid scintillation counting.

[12] = test system: Candida albicans; assay: immunomodulation: infection with Candida albicans; type: in vivo, mouse (ICR, female); conditions: for Survivor No.: n = 10
Procedure: The test compound or vehicle was administered i.p. to groups of 10 mice 1 hour before IV, challenge with suspension of C. albicans sufficient to result in 90 to 100% mortality within 10 days in the vehicle treated control group. A greater than 30 percent survival for any treated group is considered very significant, and possibly a result of immunomodulation, while an increase of 20% is considered a moderate immunomodulation activity.

[13] = test system: A431 human epidermal cells; conditions: in particular in the presence of PMA
[14] = test system: vesicular stomatitis virus; type: cell-based; conditions: concentrations ≤100 ug/ml
[15] = test system: polio I virus; type: cell-based; conditions: concentrations ≤100 ug/ml
[16] = fourth day after application, IV

Sequence of P59fyn Tyrosine Kinase (P06241 whole entry): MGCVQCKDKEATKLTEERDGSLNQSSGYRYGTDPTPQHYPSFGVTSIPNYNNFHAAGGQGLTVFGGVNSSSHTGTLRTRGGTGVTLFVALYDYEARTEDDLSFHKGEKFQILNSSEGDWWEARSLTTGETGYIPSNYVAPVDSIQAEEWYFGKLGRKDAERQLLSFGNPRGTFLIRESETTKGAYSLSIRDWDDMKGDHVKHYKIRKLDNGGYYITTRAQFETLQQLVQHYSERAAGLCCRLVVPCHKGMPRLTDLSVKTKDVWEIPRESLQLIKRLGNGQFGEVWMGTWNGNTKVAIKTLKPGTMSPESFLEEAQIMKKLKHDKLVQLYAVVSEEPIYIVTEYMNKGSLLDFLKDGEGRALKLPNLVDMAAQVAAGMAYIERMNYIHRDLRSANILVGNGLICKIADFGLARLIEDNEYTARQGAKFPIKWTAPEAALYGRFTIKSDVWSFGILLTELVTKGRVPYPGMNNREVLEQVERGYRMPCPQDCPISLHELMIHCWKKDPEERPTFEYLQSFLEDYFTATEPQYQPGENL

Compound: CCCCCCCC(CC(=O)O)OC(=O)CC(CCCCCCC)O[C@@H]1O[C@@H](C)[C@H](O)[C@@H](O)[C@H]1O[C@@H]1O[C@@H](C)[C@H](O)[C@@H](O)[C@H]1O (stereo partly drawn) [Rhamnolipid (II), (alpha-L-rhamnopyranosyl-(1,2)alpha-L-rhamnopyranosyl)-3-hydroxydecanoyl-3-hydroxydecanoic acid]
- inhibition at 0.01 µM ([1]; 0.01 μM): 1%
- inhibition at 1 µM ([1]; 1 μM): 0%
- inhibition at 100 µM ([1]; 100 μM): 15%
- LD50 [2]: 105 mg/kg
- single dose toxicity ([3]; IV application): 7.5 mg/kg
- lymphocytes [3, 16]: significant decrease
- neutrophils [3, 16]: significant increase
- behavior and appearance of treated mice ([3]; observation period, IV single dose): no changes
- lower bracket dose (LBD) ([3]; single intravenous dose): 67.5 mg/kg
- upper bracket dose (UBD) ([3]; single intravenous dose): 127.5 mg/kg
- t-PA release induced by PMA ([4]; 0.1 mg/ml, PMA induced): slightly inhibited
- basal t-PA release ([4]; basal): no effect
- concentration at which the enzyme was inhibited [5]: 10 µg/mL
- B-cell proliferation ([6]; 10 uM and 1 uM, added lipopolysaccharide): significant suppression
- activation at 0.001 µM ([6]; Mus musculus, B-cell, read-out: % Stimulation (+)/Suppression (-)): 13%
- activation at 0.01 µM ([6]; Mus musculus, B-cell, 0.01 uM, LPS, 0.5% DMSO, read-out: % Stimulation (+)/Suppression (-)): -15%
- activation at 0.1 µM ([6]; Mus musculus, B-cell, 0.1 uM, LPS, 0.5% DMSO, read-out: % Stimulation (+)/Suppression (-)): -9%
- activation at 1 µM ([6]; Mus musculus, B-cell, 1 uM, LPS, 0.5% DMSO, read-out: % Stimulation (+)/Suppression (-)): -25%
- activation at 10 µM ([6]; Mus musculus, B-cell, 10 uM, LPS, 0.5% DMSO, read-out: % Stimulation (+)/Suppression (-)): -54%
- Swelling Inc. % ([7]; IP 0.1 × 5 mg/kg): -11%
- Swelling (R -L) ([7]; IP 0.1 × 5 mg/kg): 15.4 +/- 1.7 × 0.01 mm
- ear thickness, Left Ear (No Oxa.) ([7]; IP 0.1 × 5 mg/kg): 19.4 +/- 1.1 × 0.01 mm
- ear thickness, Right Ear (24 hrs Oxa.) ([7]; IP 0.1 × 5 mg/kg): 34.8 +/- 1.8 × 0.01 mm
- Swelling Inc. % ([7]; IP 1 × 5 mg/kg): 9%
- Swelling (R -L) ([7]; IP 1 × 5 mg/kg): 19.0 +/- 2.2 × 0.01 mm
- ear thickness, Left Ear (No Oxa.) ([7]; IP 1 × 5 mg/kg): 20.6 +/- 0.9 × 0.01 mm
- ear thickness, Right Ear (24 hrs Oxa.) ([7]; IP 1 × 5 mg/kg): 39.6 +/- 2.2 × 0.01 mm
- Swelling Inc. % ([7]; IP 10 × 5 mg/kg): 14%
- Swelling (R -L) ([7]; IP 10 × 5 mg/kg): 19.8 +/- 1.9 × 0.01 mm
- ear thickness, Left Ear (No Oxa.) ([7]; IP 10 × 5 mg/kg): 20.2 +/- 0.4 × 0.01 mm
- ear thickness, Right Ear (24 hrs Oxa.) ([7]; IP 10 × 5 mg/kg): 40.0 +/- 1.6 × 0.01 mm
- Swelling Inc. % ([7]; IP 100 × 5 mg/kg): -37%
- died on Day 2 ([7]; IP 100 × 5 mg/kg): 1/5
- Swelling (R -L) ([7]; IP 100 × 5 mg/kg): 11.0 +/- 1.1 × 0.01 mm
- ear thickness, Left Ear (No Oxa.) ([7]; IP 100 × 5 mg/kg): 21.3 +/- 1.0 × 0.01 mm
- ear thickness, Right Ear (24 hrs Oxa.) ([7]; IP 100 × 5 mg/kg): 32.3 +/- 2.0 × 0.01 mm
- Emax [8]: 9%
- lab tests of blood samples [9]: no altered results of the tests were observed
- concentration at which the enzyme was inhibited [10]: 1 mg/mL
- T-cell proliferation ([11]; 10 uM, with Con A): inhibited
- in vitro T cell immunosuppression activity ([11]; 10 uM, with ConA): T cell immunosuppression activity
- activation at 0.001 µM ([11]; Mus musculus, T-cell, read-out: % Stimulation (+)/Suppression (-)): 4%
- activation at 0.01 µM ([11]; Mus musculus, T-cell, 0.01 uM, ConA, 0.5% DMSO, read-out: % Stimulation (+)/Suppression (-)): 7%
- activation at 0.1 µM ([11]; Mus musculus, T-cell, 0.1 uM, ConA, 0.5% DMSO, read-out: % Stimulation (+)/Suppression (-)): 7%
- activation at 1 µM ([11]; Mus musculus, T-cell, 1 uM, ConA, 0.5% DMSO, read-out: % Stimulation (+)/Suppression (-)): 3%
- activation at 10 µM ([11]; Mus musculus, T-cell, 10 uM, ConA, 0.5% DMSO, read-out: % Stimulation (+)/Suppression (-)): -43%
- immunomodulation activity ([12]; 10 mg/kg and 1 mg/kg): moderate activity
- Death, days post-inoculum 0-1 ([12]; IP 0.1 × 3 mg/kg): 3 #/10 Mice
- Death, days post-inoculum 2-3 ([12]; IP 0.1 × 3 mg/kg): 4 #/10 Mice
- Death, days post-inoculum 4-6 ([12]; IP 0.1 × 3 mg/kg): 1 #/10 Mice
- Death, days post-inoculum 7-9 ([12]; IP 0.1 × 3 mg/kg): 0 #/10 Mice
- Response Inc. % ([12]; IP 0.1 × 3 mg/kg): 0%
- Survivor No. ([12]; IP 0.1 × 3 mg/kg): 2
- Death, days post-inoculum 0-1 ([12]; IP 1 × 3 mg/kg): 2 #/10 Mice
- Death, days post-inoculum 2-3 ([12]; IP 1 × 3 mg/kg): 3 #/10 Mice
- Death, days post-inoculum 4-6 ([12]; IP 1 × 3 mg/kg): 1 #/10 Mice
- Death, days post-inoculum 7-9 ([12]; IP 1 × 3 mg/kg): 0 #/10 Mice
- Response Inc. % ([12]; IP 1 × 3 mg/kg): 20%
- Survivor No. ([12]; IP 1 × 3 mg/kg): 4
- Death, days post-inoculum 0-1 ([12]; IP 10 × 3 mg/kg): 0 #/10 Mice
- Death, days post-inoculum 2-3 ([12]; IP 10 × 3 mg/kg): 5 #/10 Mice
- Death, days post-inoculum 4-6 ([12]; IP 10 × 3 mg/kg): 1 #/10 Mice
- Death, days post-inoculum 7-9 ([12]; IP 10 × 3 mg/kg): 0 #/10 Mice
- Response Inc. % ([12]; IP 10 × 3 mg/kg): 20%
- Survivor No. ([12]; IP 10 × 3 mg/kg): 4
- Death, days post-inoculum 0-1 ([12]; IP 100 × 3 mg/kg): 6 #/10 Mice
- Death, days post-inoculum 2-3 ([12]; IP 100 × 3 mg/kg): 4 #/10 Mice
- Death, days post-inoculum 4-6 ([12]; IP 100 × 3 mg/kg): 0 #/10 Mice
- Death, days post-inoculum 7-9 ([12]; IP 100 × 3 mg/kg): 0 #/10 Mice
- Response Inc. % ([12]; IP 100 × 3 mg/kg): 0%
- Survivor No. ([12]; IP 100 × 3 mg/kg): 0
- in vivo immunomodulation activity ([12]; summary, no dose stated): moderate
- A431 cell growth [13]: suppressed A431 cell growth
- antiviral activity [14]: no activity
- antiviral activity [15]: no activity
